In patent EP2958919B1, “DIHYDROPTERIDINONES I” (Boehringer Ingelheim International GmbH, priority 2013, dated 2014):

Experiments:
Aβ42 = Aβ42 cellular assay in H4 neuroglioma cells stably expressing human APP695 (electrochemiluminescence, Meso Scale Discovery); type: cell-based; conditions: 22 hours incubation, supernatant
Experimental: (§1) Cells were plated out to near confluency. The compounds to be tested were received as 10 mM stocks in 100% DMSO. A dilution series was initially generated in 100% DMSO and then diluted 200-fold in cell culture media such that the tested concentration range was 30 µM to 0.1 nM and the final DMSO concentration was 0.5%. The diluted compounds were incubated with the cells for 22 hours in an incubator at 37°C and 5% CO2. Aβ42 as well as Aβ total levels were then measured post-incubation from the supernatant of the cells. Aβ42 levels were determined using a specific electrochemiluminescence assay provided by Meso Scale Discovery (Catalog # L21CA-1) according to the manufacturer's protocol. Aβ total levels were likewise determined using a specific electrochemiluminescence assay provided by Meso Scale Discovery (Catalog # L21ZA-1) according to the manufacturer's protocol.
(§2) In order to absolutely define the described compounds as modulators of γ-Secretase as opposed to simply inhibitors of γ-Secretase, measurements of not only Aβ42 but also Aβ total are performed.

Aβ total = Aβ total cellular assay in H4 neuroglioma cells stably expressing human APP695 (electrochemiluminescence), used for the ratio Aβ total IC50 / Aβ42 IC50; type: cell-based; conditions: higher ratio = more specific inhibition of Aβ42
Experimental: as §1, §2

Structure (SMILES) | IC50 (Aβ42) | Ratio Aβ(total)/Aβ42 (Aβ total)
CCc1nc(Nc2ccc(-n3cnc(C)c3)c(OC)c2)nc2c1NC(=O)C1CC(OC)CCN21 (racemic) [Example 20] | 223 nM | 30
CCc1nc(Nc2ccc(-n3cnc(C)c3)c(OC)c2)nc2c1N(C)C(=O)C1CC(OC)CCN21 (racemic) [Example 21] | 105 nM | 98
CCc1nc(Nc2ccc(-n3cnc(C)c3)c(OC)c2)nc2c1NC(=O)[C@H]1[C@@H](c3ccc(F)cc3)CCN21 (racemic) [Example 22] | 818 nM | 71
CCc1nc(Nc2ccc(-n3cnc(C)c3)c(OC)c2)nc2c1N(C)C(=O)[C@H]1[C@H](c3ccc(F)cc3)CCN21 (racemic) [Example 23] | 70 nM | 90
CCc1nc(Nc2ccc(-n3cnc(C)c3)c(OC)c2)nc2c1NC(=O)[C@@]1(C)[C@@H](OC)CN21 (racemic) [Example 27] | 360 nM | 70
CCN1C(=O)C2CCCCCN2c2nc(Nc3ccc(-n4cnc(C)c4)c(OC)c3)ncc21 (centres unmarked) [Example 1] | 48 nM | 127
COc1cc(Nc2ncc3c(n2)N2CCCCCC2C(=O)N3C)ccc1-n1cnc(C)c1 (centres unmarked) [Example 2] | 97 nM | 59
CCN1C(=O)C2CCCCCN2c2nc(Nc3ccc(-c4ccnc(C)c4)cc3)ncc21 (centres unmarked) [Example 3] | 398 nM | 17
CCCN1C(=O)C2CCCCCN2c2nc(Nc3ccc(-n4cnc(C)c4)c(OC)c3)ncc21 (centres unmarked) [Example 4] | 113 nM | 44
COc1cc(Nc2ncc3c(n2)N2CCCCCC2C(=O)N3C(C)C)ccc1-n1cnc(C)c1 (centres unmarked) [Example 5-1] | 72 nM | 109
CCN1C(=O)C2CCCCCN2c2nc(Nc3ccc(-n4ccnc4)c(OC)c3)ncc21 (centres unmarked) [Example 5-2] | 175 nM | 64
CCN1C(=O)C2CCCCCN2c2nc(Nc3ccc(-n4cnc(C)n4)c(OC)c3)ncc21 (centres unmarked) [Example 5-3] | 265 nM | 101
CCN1C(=O)C2CCCCCN2c2nc(Nc3cnc(-n4cnc(C)c4)c(OC)c3)ncc21 (centres unmarked) [Example 5-4] | 172 nM | >175
CCN1C(=O)C2CCCCCN2c2nc(Nc3ccc(-c4cnc(C)s4)c(OC)c3)ncc21 (centres unmarked) [Example 5-5] | 711 nM | 13
CCN1C(=O)C2CCCCCN2c2nc(Nc3ccc(-n4cnc(C)c4)cc3)ncc21 (centres unmarked) [Example 5-6] | 704 nM | 43
CCN1C(=O)C2CCCCCN2c2nc(Nc3ccc(-n4cnc(C)c4)cc3OC)ncc21 (centres unmarked) [Example 5-7] | 11400 nM | 3
CCCN1C(=O)C2CCCCCN2c2nc(Nc3ccc(-c4ccnc(C)c4)cc3)ncc21 (centres unmarked) [Example 5] | 720 nM | 14
CCc1nc(Nc2ccc(-n3cnc(C)c3)c(OC)c2)nc2c1N(C)C(=O)C1CCCN21 (centres unmarked) [Example 6] | 84 nM | 96
CCc1nc(Nc2ccc(-n3cnc(C)c3)c(OC)c2)nc2c1NC(=O)C1CCCN21 (centres unmarked) [Example 7] | 96 nM | 98
CCc1nc(Nc2ccc(-c3ccnc(C)c3)cc2)nc2c1N(C)C(=O)C1CCCN21 (centres unmarked) [Example 8] | 293 nM | 62
CCc1nc(Nc2ccc(-c3cnc(C)o3)nc2)nc2c1N(C)C(=O)C1CCCN21 (centres unmarked) [Example 9] | 1230 nM | >24
CCc1nc(Nc2ccc(-c3cnc(C)o3)c(OC)c2)nc2c1N(C)C(=O)C1CCCN21 (centres unmarked) [Example 10] | 149 nM | 189
COc1cc(Nc2ncc3c(n2)N2CCCC2C(=O)N3C)ccc1-n1cnc(C)c1 (centres unmarked) [Example 11] | 97 nM | >310
COc1cc(Nc2ncc3c(n2)N2CCCC2C(=O)N3C)ccc1-n1cnc(C)n1 (centres unmarked) [Example 12-1] | 2940 nM | >10
CN1C(=O)C2CCCN2c2nc(Nc3ccc(-c4cnn(C)c4)nc3)ncc21 (centres unmarked) [Example 12-2] | 5750 nM | >5

Structure (SMILES) | IC50 (Aβ42) | Ratio Aβ(total)/Aβ42 (Aβ total)
Cc1cn(-c2ccc(Nc3ncc4c(n3)N3CCCC3C(=O)N4C)cc2F)cn1 (centres unmarked) [Example 12-3] | 1100 nM | >27
COc1cc(Nc2ncc3c(n2)N2CCCC2C(=O)N3C)ccc1-n1ncnc1C (centres unmarked) [Example 12-4] | 754 nM | >39
COc1cc(Nc2ncc3c(n2)N2CCCC2(C)C(=O)N3C)ccc1-n1cnc(C)c1 (centres unmarked) [Example 12] | 160 nM | 147
COc1cc(Nc2nc(SC)c3c(n2)N2CCCCC2C(=O)N3C)ccc1-n1cnc(C)c1 (centres unmarked) [Example 13] | 420 nM | 14
CCc1nc(Nc2ccc(-n3cnc(C)c3)c(OC)c2)nc2c1N(C)C(=O)[C@@H]1C[C@@H](OC)CN21 [Example 14] | 97 nM | 67
CCc1nc(Nc2ccc(-n3cnc(C)c3)c(C#N)c2)nc2c1N(C)C(=O)[C@@H]1C[C@@H](OC)CN21 [Example 15] | 145 nM | 36
CCc1nc(Nc2ccc(-n3cnc(C)c3)c(C#N)c2)nc2c1NC(=O)[C@@H]1C[C@@H](OC)CN21 [Example 16] | 222 nM | 33
CCc1nc(Nc2ccc(-n3cnc(C)c3)c(OC)c2)nc2c1NC(=O)[C@@H]1C[C@@H](OC)CN21 [Example 17] | 299 nM | 68
CCc1nc(Nc2ccc(-c3cnc(C)o3)c(OC)c2)nc2c1N(C)C(=O)[C@@H]1C[C@@H](OC)CN21 [Example 18] | 140 nM | 215
CCc1nc(Nc2ccc(-n3cnc(C)c3)c(OC)c2)nc2c1N(CCOC)C(=O)[C@@H]1C[C@@H](OC)CN21 [Example 19-1] | 201 nM | 131
CCc1nc(Nc2ccc(-c3cnc(C)o3)c(OC)c2)nc2c1NC(=O)[C@@H]1C[C@@H](OC)CN21 [Example 19] | 364 nM | 82
CCc1nc(Nc2ccc(-n3cnc(C)c3)c(OC)c2)nc2c1N(C)C(=O)[C@@]1(C)C[C@@H](OC)CN21 [Example 24] | 166 nM | 181
CCc1nc(Nc2ccc(-n3cnc(C)c3)c(OC)c2)nc2c1N(C)C(=O)[C@]1(C)C[C@@H](OC)CN21 [Example 25] | 145 nM | 73
COc1cc(Nc2nc(CC(C)C)c3c(n2)N2C[C@H](OC)C[C@]2(C)C(=O)N3C)ccc1-n1cnc(C)c1 [Example 26] | 63 nM | 253
CCc1nc(Nc2ccc(-n3cnc(C)c3)c(OC)c2)nc2c1NC(=O)C1COCCN21 (centres unmarked) [Example 28] | 272 nM | 29
CCc1nc(Nc2ccc(-n3cnc(C)c3)c(OC)c2)nc2c1N(C)C(=O)C1COCCN21 (centres unmarked) [Example 29] | 231 nM | 76
COc1cc(Nc2ncc3c(n2)N2CCCOCC2C(=O)N3)ccc1-n1cnc(C)c1 (centres unmarked) [Example 30] | 312 nM | 96
COc1cc(Nc2ncc3c(n2)N2CCCOC2(C)C(=O)N3C)ccc1-n1cnc(C)c1 (centres unmarked) [Example 31] | 540 nM | 55
COc1cc(Nc2nc(C(C)C)c3c(n2)N2CCCC2C(=O)N3C)ccc1-n1cnc(C)c1 (centres unmarked) [Example 32] | 134 nM | 66
COc1cc(Nc2nc(CC(C)C)c3c(n2)N2CCCC2C(=O)N3C)ccc1-n1cnc(C)c1 (centres unmarked) [Example 33] | 76 nM | 171
CC(C)Cc1nc(Nc2ccc(-c3cnn(C)c3)cc2)nc2c1N(C)C(=O)C1CCCN21 (centres unmarked) [Example 34] | 928 nM | 30
Cc1cn(-c2ccc(Nc3nc(CC(C)C)c4c(n3)N3CCCC3C(=O)N4C)cc2C#N)cn1 (centres unmarked) [Example 35] | 126 nM | 71
CCc1nc(Nc2ccc(-n3cnc(C)c3)c(OC)c2)nc2c1N(C)C(=O)C1CCCCN21 (centres unmarked) [Example 36] | 64 nM | 86
COc1cc(Nc2nc(C(C)C)c3c(n2)N2CCN(C(=O)OC(C)(C)C)CC2C(=O)N3C)ccc1-n1cnc(C)c1 (centres unmarked) [Example 37] | 320 nM | 12
